≈ marks a conversion by molar mass, not a printed value. Calls of active or inactive are those of the source. The calls are words filed in the database; no cut-off is given here.
What was measured:
Cytochrome P450 3A4 = Cytochrome P450 3A4 (Homo sapiens, UniProt P08684); assay: Inhibition of CYP3A4 (unknown origin); assay type: ADME
Cytochrome P450 2C9 = Cytochrome P450 2C9 (Homo sapiens, UniProt P11712); assay: Inhibition of CYP2C9 (unknown origin); assay type: ADME
Cytochrome P450 2D6 = Cytochrome P450 2D6 (Homo sapiens, UniProt P10635); assay: Inhibition of CYP2D6 (unknown origin); assay type: ADME
[1] = Kinetic solubility of the compound in DMSO at pH 7.4; assay type: physicochemical; settings: read-out: Kinetic_solubility
[2] = Kinetic solubility of the compound in DMSO at pH 1; assay type: physicochemical; settings: read-out: Kinetic_solubility
[3] = Intrinsic clearance in human microsomes measured per mg of protein; assay type: ADME, Microsome
[4] = Intrinsic clearance in rat microsomes measured per mg of protein; assay type: ADME, Microsome
[5] = molecular target: Metabotropic glutamate receptor 5 (Rattus norvegicus) (UniProt P31424); assay: Displacement of [3H]MPEP from mGluR5 receptor in Sprague-Dawley rat cortical homogenate after 1 hr by liquid scintillation spectrometric analysis
[6] = molecular target: Metabotropic glutamate receptor 5 (Rattus norvegicus) (UniProt P31424); assay: Inhibition of rat mGluR5 receptor expressed in HEK293 cells at 30 uM relative to control; assay type: cell-based
[7] = molecular target: Metabotropic glutamate receptor 5 (Rattus norvegicus, UniProt P31424); assay: Negative allosteric modulation of rat mGluR5 receptor expressed in HEK293 cells assessed as intracellular calcium flux after 170 seconds by FLIPR assay; assay type: functional, cell-based; settings: read-out: IC50
Plasma [8] = assay: Terminal plasma concentration in Sprague-Dawley rat at 30 mg/kg, po measured during second phase of formalin test; assay type: ADME, organism-based; design: dose 30 mg/kg, route oral; settings: in vivo
Plasma [9] = assay: Terminal plasma concentration in Sprague-Dawley rat at 10 mg/kg, po measured during second phase of formalin test; assay type: ADME, organism-based; design: dose 10 mg/kg, route oral; settings: in vivo
Plasma [10] = assay: Terminal plasma concentration in Sprague-Dawley rat at 3 mg/kg, po measured during second phase of formalin test; assay type: ADME, organism-based; design: dose 3 mg/kg, route oral; settings: in vivo
Plasma [11] = assay: Terminal plasma concentration in Sprague-Dawley rat at 1 mg/kg, po measured during second phase of formalin test; assay type: ADME, organism-based; design: dose 1 mg/kg, route oral; settings: in vivo
Rattus norvegicus [12] = assay: Antinociceptive activity in Sprague-Dawley rat assessed as reduction in formalin-induced nocifensive behavior at 1 to 30 mg/kg, po administered 30 mins prior to formalin-challenge measured during first phase of test; assay type: functional, organism-based
Rattus norvegicus [13] = assay: Antinociceptive activity in Sprague-Dawley rat assessed as reduction in formalin-induced nocifensive behavior at 30 mg/kg, po administered 30 mins prior to formalin-challenge measured during second phase of test; assay type: functional, organism-based; design: dose 30 mg/kg
Rattus norvegicus [14] = assay: Antinociceptive activity in po dosed Sprague-Dawley rat assessed as reduction in formalin-induced nocifensive behavior administered 30 mins prior to formalin-challenge measured during second phase of test; assay type: functional, organism-based
[15] = Fraction unbound in rat plasma; assay type: ADME, cell-free
Plasma [16] = assay: Drug uptake in rat CSF assessed as ratio of CSF to plasma at 30 mg/kg, sc relative to control; assay type: ADME, organism-based; design: dose 30 mg/kg, route subcutaneous; settings: in vivo
[17] = Cmax in rat plasma at 30 mg/kg, sc; assay type: ADME, organism-based; design: dose 30 mg/kg, route subcutaneous
[18] = Cmax in rat CSF at 30 mg/kg, sc; assay type: ADME, organism-based, Cerebrospinal fluid; design: dose 30 mg/kg, route subcutaneous
[19] = Volume of distribution at steady state in rat at 3 mg/kg, iv; assay type: ADME, organism-based; design: dose 3 mg/kg, route intravenous; settings: in vivo, read-out: Vdss
[20] = Half life in rat at 3 mg/kg, iv; assay type: ADME, organism-based; design: dose 3 mg/kg, route intravenous; settings: in vivo
[21] = Clearance in rat at 3 mg/kg, iv; assay type: ADME, organism-based; design: dose 3 mg/kg, route intravenous; settings: in vivo
Cytochrome P450 1A2 = molecular target: T1, Cytochrome P450 1A2 (Homo sapiens, UniProt P05177); assay: Inhibition of CYP1A2 (unknown origin); assay type: ADME
T1 sequence (P05177 whole entry): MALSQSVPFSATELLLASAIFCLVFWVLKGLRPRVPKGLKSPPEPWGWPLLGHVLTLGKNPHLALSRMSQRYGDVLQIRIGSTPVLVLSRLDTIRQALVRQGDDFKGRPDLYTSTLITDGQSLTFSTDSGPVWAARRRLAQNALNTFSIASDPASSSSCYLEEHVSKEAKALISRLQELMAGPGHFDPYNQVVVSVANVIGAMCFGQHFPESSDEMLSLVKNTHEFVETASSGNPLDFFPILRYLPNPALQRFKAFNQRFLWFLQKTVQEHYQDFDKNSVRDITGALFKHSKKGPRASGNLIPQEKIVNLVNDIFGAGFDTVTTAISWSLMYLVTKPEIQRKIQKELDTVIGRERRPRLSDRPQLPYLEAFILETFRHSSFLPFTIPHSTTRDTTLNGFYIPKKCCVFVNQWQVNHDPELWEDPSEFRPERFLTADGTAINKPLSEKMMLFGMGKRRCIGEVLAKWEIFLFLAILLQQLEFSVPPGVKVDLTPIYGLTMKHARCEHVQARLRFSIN

Chain of Metabotropic glutamate receptor 5 (Rattus norvegicus) (P31424 21-1203 limits assumed): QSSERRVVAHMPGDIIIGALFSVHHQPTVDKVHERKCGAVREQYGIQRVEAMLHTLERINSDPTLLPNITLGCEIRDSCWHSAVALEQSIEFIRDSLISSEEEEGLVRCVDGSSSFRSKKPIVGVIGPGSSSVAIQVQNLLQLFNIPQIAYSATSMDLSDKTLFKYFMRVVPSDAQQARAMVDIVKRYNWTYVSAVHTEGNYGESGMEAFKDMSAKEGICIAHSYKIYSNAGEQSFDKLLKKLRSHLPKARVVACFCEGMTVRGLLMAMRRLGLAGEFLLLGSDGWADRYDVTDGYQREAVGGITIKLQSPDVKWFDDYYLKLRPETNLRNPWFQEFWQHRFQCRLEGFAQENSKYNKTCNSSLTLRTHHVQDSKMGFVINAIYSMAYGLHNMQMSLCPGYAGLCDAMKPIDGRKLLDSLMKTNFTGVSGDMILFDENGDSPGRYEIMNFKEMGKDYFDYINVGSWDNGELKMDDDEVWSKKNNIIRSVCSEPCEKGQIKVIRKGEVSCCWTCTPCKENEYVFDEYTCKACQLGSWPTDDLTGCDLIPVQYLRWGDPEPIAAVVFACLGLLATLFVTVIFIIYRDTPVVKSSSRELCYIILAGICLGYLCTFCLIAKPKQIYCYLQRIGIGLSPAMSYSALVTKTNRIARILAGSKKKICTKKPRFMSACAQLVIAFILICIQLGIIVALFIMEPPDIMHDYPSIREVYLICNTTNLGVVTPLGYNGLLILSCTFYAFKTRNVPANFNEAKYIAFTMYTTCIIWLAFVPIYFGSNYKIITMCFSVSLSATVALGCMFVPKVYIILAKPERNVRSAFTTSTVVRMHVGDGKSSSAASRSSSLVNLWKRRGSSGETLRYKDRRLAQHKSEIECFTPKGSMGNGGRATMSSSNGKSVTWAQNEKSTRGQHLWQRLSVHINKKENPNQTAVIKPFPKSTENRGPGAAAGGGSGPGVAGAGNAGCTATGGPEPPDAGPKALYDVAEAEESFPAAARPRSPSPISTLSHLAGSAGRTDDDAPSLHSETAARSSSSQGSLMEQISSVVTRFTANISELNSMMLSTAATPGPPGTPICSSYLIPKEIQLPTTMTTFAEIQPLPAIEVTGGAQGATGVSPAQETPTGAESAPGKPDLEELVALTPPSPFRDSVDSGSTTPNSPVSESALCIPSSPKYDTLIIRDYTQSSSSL
Chain of Cytochrome P450 2D6 (P10635 whole entry): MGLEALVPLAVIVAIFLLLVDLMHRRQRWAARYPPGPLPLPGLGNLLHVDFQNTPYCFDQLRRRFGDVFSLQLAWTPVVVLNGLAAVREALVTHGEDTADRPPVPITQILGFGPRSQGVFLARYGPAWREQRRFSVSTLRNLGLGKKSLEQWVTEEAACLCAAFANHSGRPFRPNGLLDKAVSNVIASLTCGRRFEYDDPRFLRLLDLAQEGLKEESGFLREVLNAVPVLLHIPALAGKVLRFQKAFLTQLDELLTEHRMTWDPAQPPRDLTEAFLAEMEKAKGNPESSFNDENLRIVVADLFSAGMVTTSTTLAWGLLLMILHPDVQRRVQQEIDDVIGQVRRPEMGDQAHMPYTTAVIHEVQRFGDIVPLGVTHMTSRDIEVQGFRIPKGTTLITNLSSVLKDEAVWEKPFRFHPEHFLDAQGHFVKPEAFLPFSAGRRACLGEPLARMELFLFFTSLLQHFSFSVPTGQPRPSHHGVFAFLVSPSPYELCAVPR
Chain of Cytochrome P450 2C9 (P11712 whole entry): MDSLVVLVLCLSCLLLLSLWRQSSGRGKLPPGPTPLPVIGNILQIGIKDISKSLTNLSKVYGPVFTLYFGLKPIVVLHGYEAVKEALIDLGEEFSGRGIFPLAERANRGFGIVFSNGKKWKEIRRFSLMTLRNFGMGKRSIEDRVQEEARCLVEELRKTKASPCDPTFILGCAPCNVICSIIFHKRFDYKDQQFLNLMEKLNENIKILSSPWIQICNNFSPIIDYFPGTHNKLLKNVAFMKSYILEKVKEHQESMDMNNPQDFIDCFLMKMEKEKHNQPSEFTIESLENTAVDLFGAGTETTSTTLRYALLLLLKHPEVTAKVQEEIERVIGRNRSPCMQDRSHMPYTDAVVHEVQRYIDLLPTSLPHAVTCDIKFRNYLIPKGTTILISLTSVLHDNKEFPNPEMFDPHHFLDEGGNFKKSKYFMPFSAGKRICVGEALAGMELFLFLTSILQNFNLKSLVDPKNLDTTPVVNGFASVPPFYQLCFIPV
Chain of Metabotropic glutamate receptor 5 (P31424 whole entry): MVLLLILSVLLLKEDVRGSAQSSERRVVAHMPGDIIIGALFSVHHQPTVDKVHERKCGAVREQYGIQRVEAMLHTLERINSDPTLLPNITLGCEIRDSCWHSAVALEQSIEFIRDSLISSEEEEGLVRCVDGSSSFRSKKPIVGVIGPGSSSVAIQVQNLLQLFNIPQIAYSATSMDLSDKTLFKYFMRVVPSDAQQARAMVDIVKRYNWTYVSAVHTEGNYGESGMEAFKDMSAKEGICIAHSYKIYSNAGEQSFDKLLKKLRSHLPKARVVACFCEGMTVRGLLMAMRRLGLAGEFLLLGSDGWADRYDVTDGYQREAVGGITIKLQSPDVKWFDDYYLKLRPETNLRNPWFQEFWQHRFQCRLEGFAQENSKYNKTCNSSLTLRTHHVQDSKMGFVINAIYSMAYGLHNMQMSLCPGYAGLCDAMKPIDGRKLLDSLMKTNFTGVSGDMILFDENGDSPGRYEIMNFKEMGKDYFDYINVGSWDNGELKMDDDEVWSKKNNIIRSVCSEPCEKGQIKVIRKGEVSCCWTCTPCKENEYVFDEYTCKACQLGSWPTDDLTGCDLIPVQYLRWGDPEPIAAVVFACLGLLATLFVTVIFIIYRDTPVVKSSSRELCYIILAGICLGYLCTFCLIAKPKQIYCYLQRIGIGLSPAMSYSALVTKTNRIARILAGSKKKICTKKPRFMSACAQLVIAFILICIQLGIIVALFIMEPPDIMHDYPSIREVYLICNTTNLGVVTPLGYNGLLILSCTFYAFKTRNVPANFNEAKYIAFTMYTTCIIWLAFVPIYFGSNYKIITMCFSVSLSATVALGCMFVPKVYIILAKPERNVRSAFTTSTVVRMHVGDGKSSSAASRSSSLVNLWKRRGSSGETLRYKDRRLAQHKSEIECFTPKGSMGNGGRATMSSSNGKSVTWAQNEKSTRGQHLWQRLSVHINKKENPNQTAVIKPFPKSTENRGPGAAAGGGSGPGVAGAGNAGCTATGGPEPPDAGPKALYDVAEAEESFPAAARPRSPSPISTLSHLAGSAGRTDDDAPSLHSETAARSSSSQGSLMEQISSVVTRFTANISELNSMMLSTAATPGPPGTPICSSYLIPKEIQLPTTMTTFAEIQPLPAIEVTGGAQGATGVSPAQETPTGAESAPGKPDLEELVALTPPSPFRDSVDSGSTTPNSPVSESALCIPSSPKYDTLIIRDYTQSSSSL
Chain of Cytochrome P450 3A4 (P08684 whole entry): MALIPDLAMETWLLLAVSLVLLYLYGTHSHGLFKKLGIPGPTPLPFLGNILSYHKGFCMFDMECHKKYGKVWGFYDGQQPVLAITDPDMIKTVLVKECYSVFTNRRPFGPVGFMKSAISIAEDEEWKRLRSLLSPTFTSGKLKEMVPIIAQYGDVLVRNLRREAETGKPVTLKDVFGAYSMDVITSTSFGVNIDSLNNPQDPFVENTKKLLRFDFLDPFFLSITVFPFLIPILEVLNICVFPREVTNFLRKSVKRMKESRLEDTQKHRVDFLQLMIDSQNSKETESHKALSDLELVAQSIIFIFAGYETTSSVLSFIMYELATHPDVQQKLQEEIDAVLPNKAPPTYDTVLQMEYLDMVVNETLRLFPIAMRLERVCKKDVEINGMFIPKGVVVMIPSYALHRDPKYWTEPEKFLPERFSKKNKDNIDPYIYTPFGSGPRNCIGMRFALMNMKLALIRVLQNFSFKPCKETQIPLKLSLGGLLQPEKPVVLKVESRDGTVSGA

For `N#Cc1ccc(COc2cc3n(n2)CCCC3)nc1`, the INH (Cytochrome P450 3A4) was > 10 µM, the INH (Cytochrome P450 2C9) was > 10 µM and the INH (Cytochrome P450 2D6) was > 10 µM. It also gave a solubility kinetic [1] of 100 µg/mL (≈ 393 µM), a solubility kinetic [2] of 160 µg/mL (≈ 629 µM) and a microsomal CLint [3] of 85 µL/min/mg. The microsomal CLint [4] was 42 µL/min/mg, the INH [5] was 299 nM and the inhibition [6] was > 99%. The IC50 [7] was 0.316 µM, the “Cp(T)” value (Plasma [8]) was 501 ng/mL and the “Cp(T)” value (Plasma [9]) was 46 ng/mL. For the same molecule, the “Cp(T)” value (Plasma [10]) was 5.3 ng/mL, the “Cp(T)” value (Plasma [11]) was 2.4 ng/mL and the Activity (Rattus norvegicus [12]) was “inactive”. For the same molecule, the Activity (Rattus norvegicus [13]) was “Active”, the Activity (Rattus norvegicus [14]) was “Dose-dependent effect” and the fraction unbound [15] was 0.32. For the same molecule, the Drug uptake (Plasma [16]) was 14.4%, the Cmax [17] was 2900 ng/mL and the Cmax [18] was 416 ng/mL. The Vd [19] was 1.1 L/kg, the half-life [20] was 12 min and the clearance [21] was 72 mL/min/kg. The INH (Cytochrome P450 1A2) was > 10 µM.
